Experiments:
PGRN = test: Extracellular progranulin quantification by ELISA after Aβ1-42 injury; assay type: cell-based, rat; conditions: Aβ1-42 injury 72 h; 10 nM
Protocol: (§1) Rat cortical neurons cultured with microglia were cultured as described by Callizot et al. in J Neurosci Res. 2013, 91: 706-716 with modifications to include microglial cells. Pregnant female rats (Rats Wistar; Janvier Labs France) of 15 days of gestation were killed, after a deep anesthesia with CO2, by cervical dislocation. Then, fetuses were collected and immediately placed in ice-cold L15 Leibovitz medium with a 2% penicillin (10,000 U/ml) and streptomycin (10 mg/ml) solution (PS) and 1% bovine serum albumin (BSA). Cortexes were treated for 20 min at 37° C. with a trypsin-EDTA solution at a final concentration of 0.05% trypsin and 0.02% EDTA. […] Viable cells were counted in a Neubauer cytometer, using the trypan blue exclusion test. […]
(§2) Cortical neurons were intoxicated with A3 solutions (see below) after 11 days of culture. […] This solution was gently agitated for 3 days at 37° C. in the dark and immediately used after being properly diluted in control medium to the concentrations used ([…] of Aβ1-42 preparation containing […] of Aβ oligomers (AβO) measured by WB). […]
Levels of PGRN in the culture medium were determined by ELISA (Progranulin (rat) ELISA lit, Adipogen, Coger) according to manufacturer's recommendations. […] Optical density (OD) was assessed by spectrophotometry at 450 nm wavelength with a Glomax apparatus (Promega). […]

[1] = 7-day stability tests of the salt (XRPD, HPLC purity); assay type: physicochemical; conditions: for Purity (%) by HPLC after 7-day stability test: 7 days
Protocol: 7-day stability tests were carried out as follows: 15 mg of salt was weighed into x3 2 mL vials. The vials were then placed at 40° C./75% RH, 80° C. and under ambient light; after 1 week, the solids were analysed by XRPD and HPLC purity (method A).

microglial cells = test: Microglia activation (OX-41) after Aβ1-42 injury; assay type: cell-based, rat; conditions: Aβ1-42 injury 72 h; at the investigated doses
Protocol: as §1, with “EDTA. The dissociation was stopped by addition of Dulbecco's modified Eagle's medium (DMEM) with 4.5 g/liter of glucose, containing DNAse I grade II (final concentration 0.5 mg/ml) and 10% fetal calf serum (FCS). Cells were mechanically dissociated by three forced passages through the tip of a 10-mL pipette.” for “EDTA.”
as §2

## N-(3-(4-(3-(diisobutylamino)propyl)piperazin-1-yl)propyl)-1H-benzo[d]imidazol-2-amine sesqui-succinate salt [sesqui-succinate salt Form 1]
PGRN
  levels of extracellular PGRN: significantly increased
[1]; 40° C./75% RH, 80° C. and ambient light
  XRPD crystallinity or form after 7-day stability tests: no change to crystallinity or form
[1]; 40° C./75% RH
  Purity (%) by HPLC after 7-day stability test: 98.5%
[1]; 80° C.
  Purity (%) by HPLC after 7-day stability test: 98.3%
[1]; Ambient Light
  Purity (%) by HPLC after 7-day stability test: 98.4%
[1]; each stability condition
  change in HPLC purity after 7-day stability test: no change in purity
Microglial cells
  activation of microglial cells (OX41 area): able to decrease the activation of microglial cells

— patent US20230391729A1, “SUCCINATE SALTS OF N-(3-(4-(3-(DIISOBUTYLAMINO)PROPYL)PIPERAZIN-1-YL)PROPYL)-1H-BENZO[D]IMIDAZOL-2-AMINE, PREPARATION THEREOF AND USE OF THE SAME” (ALZPROTECT, priority 2020, published 2023)
